Measured values as given in PMC6394493 (Cancer Chemotherapy and Pharmacology, 2018).

Test: Safety assessment: adverse events
Assay type: in vivo, Japanese patients
Text: Safety assessments consisted of monitoring and recording of all AEs, including laboratory abnormalities and vital signs. DLTs were defined as an AE or a laboratory abnormality assessed as related to the study drug and occurring within the first 28 days of treatment (Cycle 1), as defined in Supplemental Table S1.

[1] = bid 400 mg N = 8, regardless of study drug relationship
[2] = qd 400 mg (n = 3), regardless of study drug relationship
[3] = qd 800 mg (n = 3), regardless of study drug relationship
[4] = qd 1000 mg (n = 8), regardless of study drug relationship

Cn1c(=O)n(-c2ccc(C(C)(C)C#N)cc2)c2c3cc(-c4cnc5ccccc5c4)ccc3ncc21 [BEZ235]
No patient died: deaths during the study period (including a 30-day follow-up, qd and bid)
grade 2 Pneumocystis jiroveci pneumonia: study drug-related SAE (1400 mg qd)
grade 2 colitis: study drug-related SAE (1000 mg qd)
2 (66.7) n (%): AEs Total, Grade ¾ [2] | Alanine aminotransferase increased, All grades [2] | Cancer pain, All grades [2] | Decreased appetite, All grades [2] | Diarrhea, All grades [2] | Lymphopenia, All grades [2] | Lymphopenia, Grade ¾ [2] | Stomatitis, All grades [2] | Vomiting, All grades [2] | Cancer pain, All grades [3] | Fatigue, All grades [3] | Stomatitis, All grades [3]
grade 4 diarrhea: study drug-related SAE (bid dosing group, one patient)
12.5%: study drug discontinuation due to AEs (bid group, one patient)
5 (62.5) n (%): Fatigue, All grades [1] | Stomatitis, All grades [1] | Thrombocytopenia, All grades [1]
8 (100.0) n (%): AEs Total, All grades [1] | AEs Total, All grades [4]
3 (37.5) n (%): Blood creatinine increased, All grades [1] | Cancer pain, All grades [1] | Cheilitis, All grades [1] | Dysphagia, All grades [1]
1 (12.5) n (%): Aspartate aminotransferase increased, Grade ¾ [1] | Decreased appetite, Grade ¾ [1] | Diarrhea, Grade ¾ [1] | Fatigue, Grade ¾ [1] | Haemoglobin decreased, Grade ¾ [1] | Hypoalbuminaemia, Grade ¾ [1] | Hyponatraemia, Grade ¾ [1] | Malaise, Grade ¾ [1]
2 (25.0) n (%): Anxiety, All grades [1] | Blood alkaline phosphatase increased, All grades [1] | Cancer pain, Grade ¾ [1] | Gamma-glutamyltransferase increased, All grades [1] | Hyperkalaemia, All grades [1] | Hyponatraemia, All grades [1] | Lymphopenia, Grade ¾ [1] | Malaise, All grades [1] | Pyrexia, All grades [1] | Thrombocytopenia, Grade ¾ [1] | Urinary tract infection, All grades [1]
two out of six: patients requiring dose reduction in Cycle 2 (1200 mg qd)
0 n (%): Alanine aminotransferase increased, Grade ¾ [1] | Anxiety, Grade ¾ [1] | Blood alkaline phosphatase increased, Grade ¾ [1] | Blood creatinine increased, Grade ¾ [1] | Cheilitis, Grade ¾ [1] | Dry skin, Grade ¾ [1] | Dysphagia, Grade ¾ [1] | Gamma-glutamyltransferase increased, Grade ¾ [1] | Hyperkalaemia, Grade ¾ [1] | Insomnia, Grade ¾ [1] | Nausea, Grade ¾ [1] | Pyrexia, Grade ¾ [1] | Rash, Grade ¾ [1] | Stomatitis, Grade ¾ [1] | Urinary tract infection, Grade ¾ [1] | Vomiting, Grade ¾ [1] | Alanine aminotransferase increased, Grade ¾ [2] | Blood alkaline phosphatase increased, Grade ¾ [2] | Decreased appetite, Grade ¾ [2] | Diarrhea, Grade ¾ [2] | Dysgeusia, All grades [2] | Dysgeusia, Grade ¾ [2] | Fatigue, Grade ¾ [2] | Leukopenia, All grades [2] | Leukopenia, Grade ¾ [2] | Nausea, Grade ¾ [2] | Neutropenia, All grades [2] | Neutropenia, Grade ¾ [2] | Pyrexia, Grade ¾ [2] | Rash, Grade ¾ [2] | Stomatitis, Grade ¾ [2] | Thrombocytopenia, All grades [2] | Thrombocytopenia, Grade ¾ [2] | Vomiting, Grade ¾ [2] | Alanine aminotransferase increased, All grades [3] | Alanine aminotransferase increased, Grade ¾ [3] | Blood alkaline phosphatase increased, All grades [3] | Blood alkaline phosphatase increased, Grade ¾ [3] | Cancer pain, Grade ¾ [3] | Decreased appetite, Grade ¾ [3] | Diarrhea, Grade ¾ [3] | Dysgeusia, Grade ¾ [3] | Fatigue, Grade ¾ [3] | Leukopenia, Grade ¾ [3] | Nausea, Grade ¾ [3] | Neutropenia, Grade ¾ [3] | Pyrexia, Grade ¾ [3] | Rash, All grades [3] | Rash, Grade ¾ [3] | Stomatitis, Grade ¾ [3] | Vomiting, Grade ¾ [3] | Alanine aminotransferase increased, All grades [4] | Alanine aminotransferase increased, Grade ¾ [4]
six: patients requiring dose interruption due to AEs (1400 mg qd)
3 (100.0) n (%): AEs Total, All grades [2] | Nausea, All grades [2] | AEs Total, All grades [3] | Decreased appetite, All grades [3] | Diarrhea, All grades [3]
25.0%: grade 3 or 4 lymphopenia suspected to be study drug-related (bid group, two patients) | grade 3 or 4 thrombocytopenia suspected to be study drug-related (bid group, two patients)
7 (87.5) n (%): AEs Total, Grade ¾ [1] | Decreased appetite, All grades [1] | Diarrhea, All grades [1] | Nausea, All grades [1]
4 (50.0) n (%): Alanine aminotransferase increased, All grades [1] | Aspartate aminotransferase increased, All grades [1] | Dry skin, All grades [1] | Haemoglobin decreased, All grades [1] | Hypoalbuminaemia, All grades [1] | Insomnia, All grades [1] | Lymphopenia, All grades [1] | Rash, All grades [1] | Vomiting, All grades [1] | AEs Total, Grade ¾ [4]
1 (33.3) n (%): Blood alkaline phosphatase increased, All grades [2] | Cancer pain, Grade ¾ [2] | Fatigue, All grades [2] | Pyrexia, All grades [2] | Rash, All grades [2] | AEs Total, Grade ¾ [3] | Dysgeusia, All grades [3] | Leukopenia, All grades [3] | Lymphopenia, All grades [3] | Lymphopenia, Grade ¾ [3] | Nausea, All grades [3] | Neutropenia, All grades [3] | Pyrexia, All grades [3] | Thrombocytopenia, All grades [3] | Thrombocytopenia, Grade ¾ [3] | Vomiting, All grades [3]
87.5%: patients with Grade 3 or 4 AEs (bid dosing, seven patients)
three: patients requiring dose reduction in early cycles (1400 mg qd)
